Experimental data: patent US20250388593A1 (MITSUBISHI TANABE PHARMA CORPORATION, priority 2023, published 2025)

molecular target: CRBN truncate (318-426) (Homo sapiens (Human), UniProt Q96SW2); assay: Measurement of molecular interactions using surface plasmon resonance (SPR), Biacore T200; format: binding; conditions: 25° C., immobilized CRBN truncate, upper limit of measurement 200 μM
Method: The instrument used was the Biacore T200 (manufactured by Cytiva). The CRBN truncate (318-426) was obtained by expressing a construct with an Avi-tag added at the C-terminus. The sensor chip used was Sensor Chip SA (manufactured by Cytiva). The CRBN truncate was immobilized using the affinity between SA (streptavidin) on the sensor chip and the Avi-tag. The running buffer was a mixture of 10 mM HEPES pH 7.5, 150 mM NaCl, 1 mM TCEP, 0.005% Tween 20, and 2% DMSO. […] Contact time and dissociation time were set at 60 seconds and 120 seconds, respectively.

CRBN truncate (318-426), sequence (Q96SW2 318-426): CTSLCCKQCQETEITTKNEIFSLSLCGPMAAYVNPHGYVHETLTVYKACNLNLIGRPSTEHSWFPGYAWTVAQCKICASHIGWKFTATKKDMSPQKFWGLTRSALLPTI

Compound	Kd [µM]
2-(3-Methyl-5-nitro-2-pyridyl)-2,7-diazaspiro[4.6]undecane-6,8-dione [Example 78]	≥ 100
O=C1NC(=O)[C@@]2(c3ccc(Br)cc3)CC[C@@H]1O2 (racemic) [Example 173, 1-(4-Bromophenyl)-8-oxa-3-azabicyclo [3.2.1]octane-2,4-dione]	≥ 100
CN1C(=O)[C@H](N2C=CCC(=O)NC2=O)C[C@H]1c1ccc(/C=C/C(=O)OC(C)(C)C)cc1 (relative stereo) [Example 290, tert-Butyl (E)-3-[4-[(2S*,4R*)-4-(2,4-dioxo-5H-1,3-diazepin-1-yl)-1-methyl-5-oxopyrrolidin-2-yl]phenyl]prop-2-enoate]	≥ 100
Cc1sc2c(c1C)C(c1ccc(Cl)cc1)=N[C@@H](CC(=O)NCCCCCCCCNC(=O)/C=C/c1ccc([C@H]3C[C@H](N4C=CCC(=O)NC4=O)C(=O)N3C)cc1)c1nnc(C)n1-2 (relative stereo) [Example 349, (E)-N-[8-[[2-[(9S)-7-(4-chlorophenyl)-4,5,13-trimethyl-3-thia-1,8,11,12-tetrazatricyclo[8.3.0.02,6]trideca-2(6),4,7,10,12-pentaen-9-yl]acetyl]amino]octyl]-3-[4-[(2R*,4S*)-4-(2,4-dioxo-5H-1,3-diazepin-1-yl)-1-methyl-5-oxopyrrolidin-2-yl]phenyl]prop-2-enamide]	< 50
Cn1c(=O)n([C@@H]2CCCC(=O)NC2=O)c2cccc(I)c21 (single isomer, unassigned) [Example 211, 3-(4-Iodo-3-methyl-2-oxobenzimidazol-1-yl) azepane-2,7-dione]	50 to 100
Cc1sc2c(c1C)C(c1ccc(Cl)cc1)=N[C@@H](CC(=O)NCCCCCCCCCCC(=O)N1CCC(c3ccc(C45CCC(O4)C(=O)NC5=O)cc3)CC1)c1nnc(C)n1-2 (stereo in doubt) [Example 358, 2-[(9S)-7-(4-chlorophenyl)-4,5,13-trimethyl-3-thia-1,8,11,12-tetraazatricyclo[8.3.0.02,6]trideca-2(6),4,7,10,12-pentaen-9-yl]-N-[11-[4-[4-[(1R*,5R*)-2,4-dioxo-8-oxa-3-azabicyclo[3.2.1]octan-1-yl]phenyl]-1-piperidyl]-11-oxo-undecyl]acetamide]	< 50
CC(C)(C)OC(=O)NCc1cn(C2CCCC(=O)NC2=O)nn1 (centres unmarked) [Example 1, tert-Butyl N-[[1-(2,7-dioxoazepan-3-yl)triazol-4-yl]methyl]carbamate]	≥ 100
CC(C)(C)OC(=O)N1CCC(c2cn(C3CCCC(=O)NC3=O)nn2)CC1 (centres unmarked) [Example 2, tert-Butyl 4-[1-(2,7-dioxoazepan-3-yl)triazol-4-yl]piperidine-1-carboxylate]	≥ 100
CC(C)(C)OC(=O)Nc1ccc(-c2cn(C3CCCC(=O)NC3=O)nn2)cc1 (centres unmarked) [Example 3, tert-Butyl N-[4-[1-(2,7-dioxoazepan-3-yl)triazol-4-yl]phenyl]carbamate]	≥ 100
CC(C)(C)OC(=O)Nc1cccc(-c2cn(C3CCCC(=O)NC3=O)nn2)c1 (centres unmarked) [Example 5, tert-Butyl N-[3-[1-(2,7-dioxoazepan-3-yl)triazol-4-yl]phenyl]carb amate]	≥ 100
CC(C)(C)OC(=O)Nc1ccccc1-c1cn(C2CCCC(=O)NC2=O)nn1 (centres unmarked) [Example 6, tert-Butyl N-[2-[1-(2,7-dioxoazepan-3-yl)triazol-4-yl]phenyl]carbamate]	≥ 100
CN(C1CCCC(=O)NC1=O)S(=O)(=O)c1ccc(Cl)cc1 (centres unmarked) [Example 7, 4-Chloro-N-(2,7-dioxoazepan-3-yl)-N-methylbenzenesulfonamide]	≥ 100
O=C1CCCC(NS(=O)(=O)c2ccc(Cl)cc2)C(=O)N1 (centres unmarked) [Example 8, 4-Chloro-N-(2,7-dioxoazepan-3-yl) benzenesulfonamide]	≥ 100
O=C1CCCC(NS(=O)(=O)c2cccc(Cl)c2)C(=O)N1 (centres unmarked) [Example 9, 3-Chloro-N-(2,7-dioxoazepan-3-yl) benzenesulfonamide]	≥ 100
CN(C1CCCC(=O)NC1=O)S(=O)(=O)c1cccc(Cl)c1 (centres unmarked) [Example 10, 3-Chloro-N-(2,7-dioxoazepan-3-yl)-N-methylbenzenesulfonamide]	≥ 100
COC(=O)c1cccc(S(=O)(=O)N(C)C2CCCC(=O)NC2=O)c1 (centres unmarked) [Example 11, Methyl 3-[(2,7-dioxoazepan-3-yl)-methylsulfamoyl]benzoate]	≥ 100

Compound	Kd [µM]
O=C1COCC2(CCCN(C(=O)c3ccccc3)C2)C(=O)N1 (centres unmarked) [Example 12-2, 2-Benzoyl-8-oxa-2,11-diazaspiro[5.6]dodecane-10,12-dione]	≥ 100
O=C1COCC2(CCN(C(=O)c3ccccc3)CC2)C(=O)N1 [Example 13-2, 3-benzoyl-8-oxa-3,11-diazaspiro[5.6]dodecane-10,12-dione]	≥ 100
O=C1CCCC2(CCCN(C(=O)c3ccccc3)CCC2)C(=O)N1 [Example 14, 11-Benzoyl-2,11-diazaspiro[6.7]tetradecane-1,3-dione]	50 to 100
CC(C)(C)OC(=O)c1ccc(N2CCCC3(COCC(=O)NC3=O)C2)nc1 (centres unmarked) [Example 15, tert-Butyl 6-(10,12-dioxo-8-oxa-2,11-diazaspiro [5.6]dodecan-2-yl) pyridine-3-carboxylate]	≥ 100
CC(C)(C)OC(=O)c1ccc(N2CCC3(CC2)COCC(=O)NC3=O)nc1 [Example 16, tert-Butyl 6-(10,12-dioxo-8-oxa-3,11-diazaspiro [5.6]dodecan-3-yl) pyridine-3-carboxylate]	≥ 100
O=C1CCOC(c2ccccc2)C(=O)N1 (centres unmarked) [Example 18, 2-Phenyl-1,4-oxazepane-3,5-dione]	≥ 100
O=C1CCOC(c2cccc(Br)c2)C(=O)N1 (centres unmarked) [Example 19, 2-(3-Bromophenyl)-1,4-oxazepane-3,5-dione]	≥ 100
CN(C(=O)c1cccc(-c2ccccc2)c1)C1CCCC(=O)NC1=O (centres unmarked) [Example 20, N-(2,7-Dioxoazepan-3-yl)-N-methyl-3-phenylbenzamide]	≥ 100
O=C1CCCC(NC(=O)c2cccc(-c3ccccc3)c2)C(=O)N1 (centres unmarked) [Example 21, N-(2,7-dioxoazepan-3-yl)-3-phenylbenzamide]	≥ 100
O=C1COCC(NC(=O)c2cccc(-c3ccccc3)c2)C(=O)N1 (centres unmarked) [Example 22, N-(3,5-dioxo-1,4-oxazepan-6-yl)-3-phenylbenzamide]	≥ 100
CC(C)(C)OC(=O)N(CC1CCCC(=O)NC1=O)c1ccc(F)cc1 (centres unmarked) [Example 24, tert-Butyl N-[(2,7-dioxoazepan-3-yl)methyl]-N-(4-fluorophenyl) carbamate]	≥ 100
O=C1CCCC(CNc2ccc(F)cc2)C(=O)N1 (centres unmarked) [Example 25, 3-[(4-Fluoroanilino)methyl]azepane-2,7-dione]	≥ 100
COC(=O)c1ccc(=O)n(C2CCCC(=O)NC2=O)c1 (centres unmarked) [Example 26, Methyl 1-(2,7-dioxoazepan-3-yl)-6-oxopyridine-3-carboxylate]	≥ 100
CN(C1CCCC(=O)NC1=O)S(=O)(=O)c1ccc(CNC(=O)OC(C)(C)C)cc1 (centres unmarked) [Example 27, tert-Butyl N-[[4-[(2,7-dioxoazepan-3-yl)-methylsulfamoyl]phenyl]methyl]carbamate]	≥ 100
O=C1CCCC(C(=O)Nc2ccc(F)cc2)C(=O)N1 (centres unmarked) [Example 28, N-(4-Fluorophenyl)-2,7-dioxoazepane-3-carboxamide]	≥ 100
CC(C)(C)OC(=O)N1CCN(C2CCCC(=O)NC2=O)C(=O)C1 (centres unmarked) [Example 29-1, tert-Butyl 4-(2,7-dioxoazepan-3-yl)-3-oxopiperazine-1-carboxylate]	≥ 100
